Read-outs that look alike come from different tables or passages of the source.
Tests used:
[1] = tested on: Staphylococcus aureus (ATCC 25923); design: method as in Alsaeedi et al., [2015]; conditions: diffusion method; ref Alsaeedi et al., [2015]; cited from earlier work
[2] = tested on: Bacillus subtilis (ATCC 6633); design: method as in Alsaeedi et al., [2015]; conditions: diffusion method; ref Alsaeedi et al., [2015]; cited from earlier work
[3] = tested on: L. major strain IR‐173 promastigotes; experiment: Antipromastigote assay (resazurin); type: cell-based; conditions: L. major IR‐173, read-out: Antileishmanial activity, IC50 ± SD, Promastigote
Method: (§1) The antipromastigote activity of synthesized compounds was evaluated as described previously by Mangwegape et al. ([2021]) using three strains of L. donovani (1S (MHOM/SD/62/1S) and 9515 (MHOM/IN/95/9515)) and L. major (IR‐173 [MHOM/IR/−173]). The assay method is available in the Supinfo S1.
(§2) The antipromastigote activity of synthesized compounds was evaluated using a modified, resazurin-based method of Kulshrestha et al. ^2 and Siqueira-Neto et al. ^3 and on three Leishmania strains. Leishmania donovani (strains 1S (MHOM/SD/62/1S) and 9515 (MHOM/IN/95/9515)) and L. major (strain IR-173 (MHOM/IR/-173)) promastigotes were cultured in M199 with Hank's salts and 0.68 mM L-glutamine (Sigma Aldrich) supplemented with 50 U/mL Penicillin/Streptomycin solution (Lonza), 4.2 mM sodium bicarbonate, 25 mM Hepes, 10% fetal bovine serum, 0.25% hemin, 0.1% biotin, and 10 mM adenine (Sigma Aldrich) and the pH adjusted to 7.3 – 7.4. The promastigotes were maintained at 25 °C.
(§3) Amphothericin B (10 μM) served as the standard drug and growth medium without parasites served as the blank. The plates were incubated for 48 hours at 25 °C in humidified atmosphere. After incubation, 50 μL of resazurin solution (0.01% in PBS) was added to each well and the plates were further incubated at 25 °C in the dark for 24 hours. Absorbance was measured at 570 nm and 600 nm using the Thermofisher Scientific GO Multiscan plate reader. Data analysis was performed for each biological replicate using SkanIt 4.0 Research Edition software. Background absorbance of resazurin (600 nm) was subtracted from the absorbance values of resorufin (570 nm). The mean absorbance calculated and the percentage growth inhibition and cell viability were determined by the following equations: […]
(§4) The IC50 and Z-score were determined for each compound’s three biological replicates using the cell viability % values and GraphPad Prism 5. The mean IC50 of the biological replicates with standard deviation (SD) served as the final IC50 of each compound.

[4] = tested on: L. donovani strain 1S promastigotes; experiment: Antipromastigote assay (resazurin); type: cell-based; conditions: L. donovani 1S, read-out: 1S IC50 ± SD, Promastigote
Method: as §1, §2, §3, §4

[5] = tested on: L. donovani strain 9515 promastigotes; experiment: Antipromastigote assay (resazurin); type: cell-based; conditions: L. donovani 9515, read-out: 9515 IC50 ± SD, Promastigote
Method: as §1, §2, §3, §4

[6] = tested on: Salmonella susi (ATTC 13070); design: method as in Alsaeedi et al., [2015]; conditions: diffusion method; ref Alsaeedi et al., [2015]; cited from earlier work
[7] = tested on: Candida albicans (ATCC 10231); design: method as in Alsaeedi et al., [2015]; conditions: diffusion method; ref Alsaeedi et al., [2015]; cited from earlier work
[8] = tested on: Escherichia coli (ATCC 25922); design: method as in Alsaeedi et al., [2015]; conditions: diffusion method; ref Alsaeedi et al., [2015]; cited from earlier work
[9] = tested on: L. donovani strains (1S and 9515) amastigotes; experiment: Anti-amastigote selectivity, strain not separated; type: cell-based; conditions: strain not given
Method: The activities of synthesized compounds against the intramacrophage parasites of the three Leishmania strains were evaluated using a modified, resazurin‐based method (Jain et al., [2012]; Njanpa et al., [2021]). Suspension cultures of human acute monocytic leukemia (THP‐1) cells were maintained in RPMI‐1640 medium (Sigma Aldrich) supplemented with 10% FBS and 1% penicillin–streptomycin, at 37°C and 5% CO2 in a humidified atmosphere. Duplicate 96‐well plates (for respective anti‐amastigote and cytotoxicity assays) were seeded with 200 μl of a 2.5 × 10^5 cells/ml suspension treated with 25 ng/ml phorbol 12‐myristate 13‐acetate (PMA), followed by 48‐h incubation to promote differentiation into adherent macrophages.
For the anti‐amastigote assay, differentiated plates were carefully washed with PBS, followed by the addition of 200 μl of stationary phase promastigotes in RPMI 1640 medium with 2% FBS. An MOI of 30:1 was used for all three Leishmania strains. The parasite‐treated plates were incubated for 24 h at 32°C (L. major) or 37°C (L. donovani) and 5% CO2 to promote infection of the macrophages. […] Blanks were represented by growth medium without cells, as well as parasite‐free THP‐1 cells. The treated plates were incubated for 72 h.
After incubation, the plates were gently washed three times with PBS to remove any remaining extracellular parasites. The wells were then treated with 20 μl of 0.05% sodium dodecyl sulfate in PBS for 30 s to lyse the host macrophages. Lysis was terminated by adding 180 μl promastigote growth medium with 10% FBS. To initiate the resazurin assay, 10 μl of resazurin solution (0.025% in PBS) was added to all wells and the plates were incubated for 24 h at 32°C (L. major) or 37°C (L. donovani) and 5% CO2. Absorbance measurements, calculations, and IC50 determinations were performed as described for the antipromastigote assay (Supinfo S1).

[10] = tested on: THP‐1 cells; experiment: Cytotoxicity on differentiated host THP-1 macrophages, resazurin assay; type: cell-based, human; conditions: differentiated THP-1 macrophages, 72 h; read-out: Cytotoxicity, IC50 ± SD, THP‐1
Method: Duplicate 96‐well plates (for respective anti‐amastigote and cytotoxicity assays) were seeded with 200 μl of a 2.5 × 10^5 cells/ml suspension treated with 25 ng/ml phorbol 12‐myristate 13‐acetate (PMA), followed by 48‐h incubation to promote differentiation into adherent macrophages.
Cytotoxicity of the compounds on the differentiated host THP-1 cells were also evaluated. As mentioned, duplicate plates of differentiated THP-1 cells were prepared during the anti-amastigote assay. These plates were incubated for 72 hours to differentiate, instead of replacing the growth medium with parasite-containing medium after 48 hours. […] Blanks were growth medium without cells. The treated plates were incubated for 72 hours, followed by the addition of 50 μL of resazurin solution (0.01% in PBS) to each well and 24-hour incubation.

[11] = tested on: Vero cells; experiment: in vitro
Method: The assay method is available in the Supinfo S1.
African green monkey kidney epithelial (Vero) cells (Cellonex, South Africa) were cultured and the basal cytotoxicity of the synthesized compounds with antileishmanial and/or anticancer activity was evaluated using the resazurin assay, as described in Mangwegape et al. ^4 Emetine served as the standard cytotoxic drug. Further use of reference drugs, controls, data analysis, calculations and IC50 determinations were identical to that of the antileishmanial assay.

Row | Molecule | IC50 ([3]; Leishmania major) [µM] | IC50 ([4]; Leishmania donovani) [µM] | IC50 ([5]; Leishmania donovani) [µM] | selectivity index (SI) relative to the host THP‐1 cells [9] | selectivity index (SI) toward Vero cells [9] | other results
1 | Cc1ccc(S(=O)(=O)N/N=C/c2ccc([N+](=O)[O-])o2)cc1 [2c, (E)-4-Methyl-N'-[(5-nitrofuran-2-yl)methylene]benzenesulfonohydrazide] | > 10 | > 10 | > 10 | – | – | antimicrobial activity (inhibition zone) [1]: no activity; antimicrobial activity (inhibition zone) [2]: no activity; inhibition zone [6]: 20 mm; antimicrobial activity (inhibition zone) [7]: no activity; antimicrobial activity (inhibition zone) [8]: no activity
2 | CC(C)c1ccc(S(=O)(=O)N/N=C/c2ccc([N+](=O)[O-])o2)cc1 [2d, (E)-4-Isopropyl-N'-[(5-nitrofuran-2-yl)methylene]benzenesulfonohydrazide] | 4.71 ± 0.33 | 5 ± 1.32 | 3.62 ± 0.65 | – | – | –
3 | CC(C)(C)c1ccc(S(=O)(=O)N/N=C/c2ccc([N+](=O)[O-])o2)cc1 [2f, (E)-4-(tert-Butyl)-N'-[(5-nitrofuran-2-yl)methylene]benzenesulfonohydrazide] | 6.93 ± 0.83 | 5.29 ± 0.69 | 3.5 ± 0.58 | > 10 | < 10 | –
4 | O=[N+]([O-])c1ccc(/C=N/NS(=O)(=O)c2ccc(-c3ccccc3)cc2)o1 [2h, (E)-N'-[(5-Nitrofuran-2-yl)methylene]-(1,1'-biphenyl)-4-sulfonohydrazide] | 2.49 ± 0.51 | 1.45 ± 0.16 | 1.53 ± 0.14 | > 10 | < 10 | –
5 | O=[N+]([O-])c1ccc(/C=N/NS(=O)(=O)c2cccc3c2OCCO3)o1 [2l, (E)-N'-[(5-Nitrofuran-2-yl)methylene]-2,3-dihydrobenzo[b][1,4]dioxine-5-sulfonohydrazide] | 8.1 ± 0.03 | 9.24 ± 1.32 | 7.25 ± 0.11 | > 10 | < 10 | –
6 | O=Cc1ccc([N+](=O)[O-])o1 [NFA, 5‐nitro‐2‐furaldehyde, reference compound] | 7.28 ± 0.1 | 6.39 ± 0.26 | > 10 | – | – | IC50 [10]: 80.9 ± 6.37 µM
7 | O=C1CN(/N=C/c2ccc([N+](=O)[O-])o2)C(=O)N1 [NFT, nitrofurantoin, reference compound] | > 10 | > 10 | > 10 | – | – | –
8 | O=C(N/N=C/c1ccc([N+](=O)[O-])o1)c1ccc(O)cc1 [NFX, Nifuroxazide, reference compound] | > 10 | > 10 | > 10 | – | – | –
9 | (E)-2,4,6-Trimethyl-N'-[(5-nitrofuran-2-yl)methylene]benzenesulfonohydrazide [2e] | – | – | – | > 10 | < 10 | IC50 [3]: 7.09 ± 0.74 µM; IC50 [4]: 3.04 ± 0.04 µM; IC50 [5]: 3.97 ± 1.08 µM; IC50 [10]: > 100 µM; IC50 [11]: 39.8 ± 5.89 µM

Reference: paper PMC9546217, “Exploring novel nitrofuranyl sulfonohydrazides as anti‐Leishmania and anti‐cancer agents: Synthesis, in vitro efficacy and hit identification” (Chemical Biology & Drug Design, 2022)
